Measurements taken from patent publication EP1600504A1, “Control of transglutaminase catalyzed protein modification by selective irreversible transglutaminase inhibitors” (N-Zyme BioTec GmbH, priority 2004, dated 2005).
Peptide text beside a SMILES is read from it. * marks the point of attachment. Cbz = O=C(OCc1ccccc1)*; Acryloyl = C=CC(=O)*; ClAc = O=C(CCl)*

Experiments:
Transglutaminase [1] = assay: Transglutaminase-catalysed labelling reaction stopped by inhibitor, SDS-PAGE fluorescence (Beispiel 1); assay type: biochemical; conditions: Zielprotein N,N-Dimethylcasein, stopped after 2, 10 and 20 min, large excess of unbound dye present, transglutaminase only given in an image table
Description: (§1) Alle nachfolgend beschriebenen Experimente wurden nach dem gleichen Standardprotokoll durchgeführt. Dabei werden das jeweilige Zielprotein und das farbstofftragende amin- oder glutaminhaltige Substrat in einem geeigneten Puffer vorgelegt und für 5 Min. auf 37°C temperiert. Anschließend wird durch Zugabe von Transglutaminase die Reaktion gestartet. Nach variierenden Inkubationszeiten, durch die jeweils verschiedene Markierungsgrade erreicht werden, wird durch Zugabe eines Inhibitors die Transglutaminase vollständig und irreversibel inaktiviert (Reaktionsabbruch 1). In Kontrollexperimenten wird die Markierungsreaktion durch Abtrennung des ungebundenen, farbstofftragenden Substrates unterbrochen (Reaktionsabbruch 2). Die Abtrennung des ungebundenen Farbstoffes erfolgt unter Normaldruck über eine PD-10-Säule (Amersham Biosciences). Dieses allgemein einsetzbare Verfahren zur schnellen Abtrennung kleiner Moleküle von Makromolekülen wie Proteinen basiert auf dem Prinzip der Gelpermeationschromatographie und kann als das vorteilhafteste Verfahren zur Reaktionskontrolle nach dem Stand der Technik angesehen werden. Andere Verfahren, mit denen die weitere katalytische Markierungsreaktion abgebrochen werden könnte, sind weniger geeignet oder nicht allgemein einsetzbar (z. B. thermische, unspezifische chemische oder affinitätschromatographische Methoden). […]

Transglutaminase [2] = assay: Transglutaminase-catalysed labelling reaction stopped by inhibitor, SDS-PAGE fluorescence (Beispiel 3); assay type: biochemical
Description: as §1

Transglutaminase [3] = assay: Transglutaminase-catalysed labelling reaction stopped by inhibitor, SDS-PAGE fluorescence (Beispiel 5); assay type: biochemical; conditions: stopped after 2, 5 and 10 min, then 30 min RT
Description: as §1

[4] = biological target: T1, Meerschweinchenlebertransglutaminase (Cavia cutleri, UniProt P08587); assay: Labelling of recombinant hLeptin stopped by inhibitor, RP-HPLC (Beispiel 7); assay type: biochemical, Meerschweinchen
T1 sequence (P08587 2-690 limits assumed): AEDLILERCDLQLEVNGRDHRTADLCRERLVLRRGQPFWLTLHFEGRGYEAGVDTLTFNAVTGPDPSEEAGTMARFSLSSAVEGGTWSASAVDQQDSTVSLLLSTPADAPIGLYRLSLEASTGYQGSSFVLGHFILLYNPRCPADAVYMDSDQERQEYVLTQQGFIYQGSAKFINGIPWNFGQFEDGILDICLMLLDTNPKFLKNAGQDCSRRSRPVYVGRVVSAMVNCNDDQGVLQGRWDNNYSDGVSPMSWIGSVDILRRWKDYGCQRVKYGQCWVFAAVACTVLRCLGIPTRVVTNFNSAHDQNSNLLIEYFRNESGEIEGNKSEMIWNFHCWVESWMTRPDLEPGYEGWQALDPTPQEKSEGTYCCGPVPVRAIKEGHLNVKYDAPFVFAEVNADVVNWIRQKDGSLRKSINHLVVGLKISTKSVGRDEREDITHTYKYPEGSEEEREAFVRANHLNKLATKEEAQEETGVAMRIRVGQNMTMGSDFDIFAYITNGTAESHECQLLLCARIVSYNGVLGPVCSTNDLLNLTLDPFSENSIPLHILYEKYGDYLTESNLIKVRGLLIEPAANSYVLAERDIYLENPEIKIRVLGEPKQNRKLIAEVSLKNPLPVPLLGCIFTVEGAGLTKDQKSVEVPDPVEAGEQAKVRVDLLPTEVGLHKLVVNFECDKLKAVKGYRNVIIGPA
Description: as §1, with “Methoden). Die Gelpermeationschromatographie wurde jeweils so schnell wie technisch machbar durchgeführt. Dazu wird auf die vorkonditionierte PD-10-Säule 2,5 ml des Reaktionsvolumens aufgetragen und die Lösung vollständig in das Trennmaterial eingebracht. Anschließend wird das Protein mit 3,5 ml Puffer eluiert. Die niedermolekularen Substanzen verbleiben auf der Säule. Der Gesamtprozess benötigt eine Zeitspanne von mindestens 3 Minuten. Während dieser Zeit kann Transglutaminase weiter auf das Zielprotein einwirken.” for “Methoden).”

[5] = biological target: T2, bakterielle Transglutaminase (Streptomyces mobaraensis, UniProt P81453); assay: Labelling of recombinant hIRS1-p30-N-K stopped by inhibitor, SDS-PAGE fluorescence (Beispiel 6); assay type: biochemical
T2 sequence (P81453 77-407): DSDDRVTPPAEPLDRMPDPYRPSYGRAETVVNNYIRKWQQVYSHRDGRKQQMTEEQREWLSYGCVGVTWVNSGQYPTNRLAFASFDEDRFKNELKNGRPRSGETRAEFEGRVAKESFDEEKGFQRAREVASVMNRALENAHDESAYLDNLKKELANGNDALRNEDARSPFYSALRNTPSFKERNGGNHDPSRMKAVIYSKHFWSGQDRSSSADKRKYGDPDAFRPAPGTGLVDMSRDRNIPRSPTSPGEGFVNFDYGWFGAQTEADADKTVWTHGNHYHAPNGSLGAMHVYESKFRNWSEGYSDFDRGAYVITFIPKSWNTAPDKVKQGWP
Description: as §1

[6] = biological target: T2, bakterielle Transglutaminase; assay: Labelling of recombinant Concanavalin A stopped by inhibitor, SDS-PAGE fluorescence (Beispiel 4); assay type: biochemical; conditions: rekombinantes Concanavalin A, stopped after 2 and 5 min, then 30 min RT
Description: as §1

`CC[C@H](C)[C@H](NC(=O)[C@H](CCC(N)=O)NC(=O)[C@H](CCC(=O)C[S+](C)C)NC(=O)OC(C)(C)C)C(=O)N[C@H](C(=O)OC)C(C)C` [Boc-SON-Gln-Ile-Val-OH, N^α-tert.-Butyloxycarbonyl-L-(6-dimethylsulfonium-5-oxonorleucinyl)-L-glutaminyl-L-isoleucinyl-L-valinmethylester] was tested. Which “weitere katalytische Reaktion nach Zugabe des Inhibitors” value (Transglutaminase [1]) did it give?
Its value is “Eine weitere katalytische Reaktion findet nach Zugabe des Inhibitors nicht statt”.

Which results are given for `[N-]=[N+]=CC(=O)CC[C@H](NC(=O)OCc1ccccc1)C(=O)NCC(=O)O` [Z-DON-Gly-OH, N^α-Benzyloxycarbonyl-L-(6-diazo-5-oxonorleucinyl)glycin]?
weiteres Labeling des Zielproteins nach Abtrennung des Inhibitors (Transglutaminase [2]; inhibitor removed by gel permeation chromatography, fresh unbound dye added, 30 min RT): kein weiteres Labeling des Zielproteins; Markierungsreaktion nach Zugabe des Inhibitors (Transglutaminase [2]; stopped after 5 min, sample directly after inhibitor addition): wird die Reaktion gestoppt

For `O=C(O)CNC(=O)[C@H](COC(=O)CCl)NC(=O)OCc1ccccc1` [Z-Ser(OAcCl)-Gly-OH, N^α-Benzyloxycarbonyl-L-serinyl(O-chloracetyl)glycin] (Cbz-Ser(ClAc)-Gly-OH), which “weitere Markierungsreaktionen nach Inhibitorzugabe” value (Transglutaminase [3]) is on record?
Its value is “keine weiteren Markierungsreaktionen mehr”.

Which “Inaktivierung der Meerschweinchenlebertransglutaminase” value ([4]; stopped after 5 min) does the source give for `C=CC(=O)NCCCC[C@H](NC(=O)OCc1ccccc1)C(=O)NCC(=O)O` [Z-Lys(Acryloylamid)-Gly-OH, N^α-Benzyloxycarbonyl-L-lysinyl(ε-acryloyl)glycin] (Cbz-Lys(Acryloyl)-Gly-OH) here?
Its value is “inaktiviert Meerschweinchenlebertransglutaminase vollständig”.

And the “weitere Labeling- und Quervernetzungsreaktionen” value ([4]; stopped after 5 min, then 30 and 60 min RT)?
The value was “keine weitere Labeling- und Quervernetzungsreaktionen”.

What about the “weitere enzymatische Reaktionen nach Lagerung” value ([4]; storage 10 days at -20°C, then one hour RT) of the same compound?
The value was “keine weiteren enzymatischen Reaktionen mehr”.

Which “weitere Modifikation des Zielproteins nach Abtrennung von Farbstoff und Inhibitor” value ([5]; dye and inhibitor removed, kept at RT 30 min, 1 h, 2 h, 4 h) does the source give for `COC(=O)[C@H](Cc1ccccc1)NC(=O)[C@H](CCC(=O)C=[N+]=[N-])NC(=O)OCc1ccccc1` [Z-DON-Phe-OMe, N^α-Benzyloxycarbonyl-L-(6-diazo-5-oxonorleucinyl)-L-phenylalaninmethylester] here?
Its value is “keine weitere Modifikation des Zielproteins”.

What about the “Inhibition der Transglutaminase” value ([5]; stopped after 5 min) of the same compound?
The value was “vollständige und irreversible Inhibition der Transglutaminase”.

How did the “weitere Markierungsreaktion nach Inhibitorzugabe” value [6] turn out when `COC(=O)[C@H](Cc1ccccc1)NC(=O)[C@H](CCC(=O)C[S+](C)C)NC(=O)OCc1ccccc1` [Z-SON-Phe-OMe, Nα-Benzyloxycarbonyl-L-(6-dimethylsulfonium-5-oxonorleucinyl)phenylalaninmethylester] was run?
The value was “keine weitere Markierungsreaktion mehr”.
